Source: patent US9340493B2, “Hydroxamic acid derivatives useful as antibacterial agents” (Pfizer Inc., priority 2008, dated 2016)
In brackets after ≈: the same amount, converted by molar mass.

Key:
[1] = system: P. aeruginosa PAO280; assay: MIC determination, P. aeruginosa PAO280; assay type: cell-based; details: Pseudomonas aeruginosa, PAO280, read-out: MIC (ug/mL) P. aeruginosa PAO280
In short: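 Broth dilution MIC per CLSI M7-A7/M100-S18 guidelines. Strain PAO280 lacks efflux pumps MexAB-oprM, MexXY and MexZ.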

[2] = system: Acinetobacter baumanii/haemolyticus; assay: MIC determination, A. baumanii/haemolyticus; assay type: cell-based; details: Acinetobacter baumannii; multidrug-resistant clinical isolate; * = arithmetic mean of 2-6 MIC determinations; read-out: MIC (ug/mL) A. baumanii/haemolyticus
Procedure: (§1) MIC determinations: The in vitro antibacterial activity of compounds described in the Examples was evaluated by minimum inhibitory concentration (MIC) testing according to Clinical and Laboratory Standards Institute (CLSI, formerly NCCLS) guidelines. See: Clinical and Laboratory Standards Institute. Methods for Dilution Antimicrobial Susceptibility Tests for Bacteria that Grow Aerobically; Approved Standard-Seventh Edition. CLSI document M7-A7 [ISBN 1-56238-587-9]. Clinical and Laboratory Standards Institute, 940 West Valley Road, Suite 1400, Wayne, Pa. 19087-1898 USA, 2006; also Clinical and Laboratory Standards Institute. Performance Standards for Antimicrobial Susceptibility Testing; Eighteenth Informational Supplement. CLSI document M100-S18 [ISBN1-56238-653-0]. Clinical and Laboratory Standards Institute.
(§2) The following bacterial strains were used:
Acinetobacter baumanii/haemolyticus: Multidrug-resistant clinical isolate;

[3] = molecular target: T1, Pseudomonas aeruginosa LpxC enzyme (Pseudomonas aeruginosa, UniProt P47205); assay: IC50 assay, LpxC enzyme from P. aeruginosa; assay type: biochemical; details: 0.5 nM enzyme, 25° C., pH 8.0, 20 min; ** = average of 2-8 assays
T1 construct: made in house; host or cells: E. coli
T1 sequence (P47205 1-303): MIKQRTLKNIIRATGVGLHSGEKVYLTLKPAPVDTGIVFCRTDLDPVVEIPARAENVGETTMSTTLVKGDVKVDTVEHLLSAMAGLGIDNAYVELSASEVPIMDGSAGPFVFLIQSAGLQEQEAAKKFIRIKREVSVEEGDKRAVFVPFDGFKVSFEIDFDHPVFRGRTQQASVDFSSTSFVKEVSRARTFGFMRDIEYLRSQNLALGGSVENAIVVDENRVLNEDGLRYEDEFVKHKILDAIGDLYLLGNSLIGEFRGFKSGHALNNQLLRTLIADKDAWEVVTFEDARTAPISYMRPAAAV
In short: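 P. aeruginosa LpxC (0.5 nM, expressed in E. coli) reacted with 0.5 uM ³H-acetyl-labelled UDP-3-O-(R-3-hydroxydecanoyl)-GlcNAc in 50 mM sodium phosphate pH 8.0 with 1 mg/ml BSA at 25 °C for 20 min. Charcoal stopped the reaction, and filtrate radioactivity was counted by scintillation after no-enzyme background subtraction.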

[4] = system: Enterobacter aerogenes; assay: MIC determination, E. aerogenes; assay type: cell-based; details: Klebsiella aerogenes; quinolone-resistant, ESBL-expressing clinical isolate; * = arithmetic mean of 2-6 MIC determinations; read-out: MIC (ug/mL) E. aerogenes
Procedure: as §1, §2
Enterobacter aerogenes: Quinolone-resistant isolate, expresses extended-spectrum beta-lactamases (ESBL), clinical isolate;

[5] = system: Klebsiella pneumoniae; assay: MIC determination, K. pneumoniae; assay type: cell-based; details: ciprofloxacin-resistant, ESBL-expressing clinical isolate, * = arithmetic mean of 2-6 MIC determinations, read-out: MIC (ug/mL) K. pneumoniae
Procedure: as §1, §2
Klebsiella pneumoniae: Ciprofloxacin-resistant isolate, expresses extended-spectrum beta-lactamases (ESBL), clinical isolate;

[6] = system: Staphylococcus aureus ATCC 29213; assay: MIC determination, S. aureus ATCC 29213; assay type: cell-based; details: ATCC29213, CLSI quality control reference strain, * = arithmetic mean of 2-6 MIC determinations, read-out: MIC (ug/mL) S. aureus ATCC 29213
In short: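 MIC was measured by dilution susceptibility testing following CLSI guidelines (M7-A7; M100-S18). The test organism is the CLSI quality-control reference strain.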

[7] = system: Escherichia coli EC-1; assay: MIC determination, E. coli EC-1; assay type: cell-based; details: EC1, EC-1: VOGEL, * = arithmetic mean of 2-6 MIC determinations, read-out: MIC (ug/mL) E. coli EC-1
Procedure: as §1, §2
Escherichia coli EC-1: VOGEL;

[8] = system: P. aeruginosa UI-18; assay: MIC determination, P. aeruginosa UI-18; assay type: cell-based; details: Pseudomonas aeruginosa, UI18; wild-type; * = arithmetic mean of 2-6 MIC determinations; read-out: MIC (ug/mL) P. aeruginosa UI-18
In short: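 MIC by broth dilution following CLSI M7-A7 and M100-S18 guidelines, tested against wild-type P. aeruginosa UI-18.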

## Cc1cc(CNC(=O)C(C)(OCc2ccc(-c3cnccn3)cc2)C(=O)NO)no1 (centres unmarked) [Example 90, N-hydroxy-2-methyl-N′-[(5-methylisoxazol-3-yl)methyl]-2-[(4-pyrazin-2-ylbenzyl)oxy]malonamide]
[1]
  MIC: 4 µg/mL (≈ 9.72 µM)
[2]
  MIC: > 64 µg/mL
[3]
  IC50: 0.147 µM
[4]
  MIC: > 64 µg/mL
[5]
  MIC: > 64 µg/mL
[6]
  MIC: > 64 µg/mL
[7]
  MIC: > 64 µg/mL
[8]
  MIC: > 64 µg/mL

## CCCc1ccc(-c2ccc(CO[C@](C)(C(=O)NO)[C@@H](O)c3cn4ccccc4n3)cc2)cc1 [Example 26, (2S,3S)-N,3-dihydroxy-3-imidazo[1,2-a]pyridin-2-yl-2-methyl-2-[(4′-propylbiphenyl-4-yl)methoxy]propanamide]
[1]
  MIC: 2 µg/mL (≈ 4.35 µM)
[2]
  MIC: 1 µg/mL (≈ 2.18 µM)
[3]
  IC50: 0.00137 µM
[4]
  MIC: 8 µg/mL (≈ 17.4 µM)
[5]
  MIC: 4 µg/mL (≈ 8.7 µM)
[6]
  MIC: 32 µg/mL (≈ 69.6 µM)
[7]
  MIC: 1 µg/mL (≈ 2.18 µM)
[8]
  MIC: 8 µg/mL (≈ 17.4 µM)

## C[C@@](OCc1ccc(-c2ccc(F)cc2)cc1)(C(=O)NO)[C@@H](O)c1cc(CO)on1 [Example 35, (2S,3S)-2-[(4′-fluorobiphenyl-4-yl)methoxy]-N,3-dihydroxy-3-[5-(hydroxymethyl)isoxazol-3-yl]-2-methylpropanamide]
[1]
  MIC: 0.03 µg/mL (≈ 0.072 µM)
[2]
  MIC: 64 µg/mL (≈ 154 µM)
[3]
  IC50: 0.000695 µM
[4]
  MIC: > 64 µg/mL
[5]
  MIC: 53 µg/mL (≈ 127 µM)
[6]
  MIC: > 64 µg/mL
[7]
  MIC: 23 µg/mL (≈ 55.2 µM)
[8]
  MIC: 1 µg/mL (≈ 2.4 µM)

## CC(CO)(OCc1ccc(-c2ccc(F)cc2F)cc1)C(=O)NO (centres unmarked) [Example 66, 2-[(2′,4′-difluorobiphenyl-4-yl)methoxy]-N,3-dihydroxy-2-methylpropanamide]
[1]
  MIC: 1.5 µg/mL (≈ 4.45 µM)
[2]
  MIC: > 64 µg/mL
[3]
  IC50: 0.00332 µM
[4]
  MIC: > 64 µg/mL
[5]
  MIC: > 64 µg/mL
[6]
  MIC: > 64 µg/mL
[7]
  MIC: > 64 µg/mL
[8]
  MIC: 64 µg/mL (≈ 190 µM)

## Cc1cc(CNC(=O)C(C)(OCc2ccc(-c3ccc(-c4cc(CO)no4)cc3)cc2)C(=O)NO)no1 (centres unmarked) [Example 84, N-hydroxy-2-({4′-[3-(hydroxymethyl)isoxazol-5-yl]biphenyl-4-yl}methoxy)-2-methyl-N′-[(5-methylisoxazol-3-yl)methyl]malonamide]
[1]
  MIC: 0.06 µg/mL (≈ 0.118 µM)
[2]
  MIC: > 64 µg/mL
[3]
  IC50: 0.000861 µM
[4]
  MIC: 16 µg/mL (≈ 31.6 µM)
[5]
  MIC: 8 µg/mL (≈ 15.8 µM)
[6]
  MIC: > 64 µg/mL
[7]
  MIC: 1 µg/mL (≈ 1.97 µM)
[8]
  MIC: 2 µg/mL (≈ 3.95 µM)

## C[C@@](OCc1ccc(-c2ccccc2)cc1)(C(=O)NO)[C@@H](O)c1ccn[nH]1 [Example 45, (2S,3S)-2-(biphenyl-4-ylmethoxy)-N,3-dihydroxy-2-methyl-3-(1H-pyrazol-3-yl)propanamide]
[1]
  MIC: 0.25 µg/mL (≈ 0.68 µM)
[2]
  MIC: > 32 µg/mL
[3]
  IC50: 0.00195 µM
[4]
  MIC: > 32 µg/mL
[5]
  MIC: > 32 µg/mL
[6]
  MIC: > 32 µg/mL
[7]
  MIC: > 32 µg/mL
[8]
  MIC: 16 µg/mL (≈ 43.5 µM)

## Cc1cccnc1CCNC(=O)C(C)(OCc1ccc(-c2ccccc2)cc1)C(=O)NO (centres unmarked) [Example 70, 2-(biphenyl-4-ylmethoxy)-N-hydroxy-2-methyl-N′-[2-(3-methylpyridin-2-yl)ethyl]malonamide]
[1]
  MIC: 1 µg/mL (≈ 2.31 µM)
[2]
  MIC: 32 µg/mL (≈ 73.8 µM)
[3]
  IC50: 0.00804 µM
[4]
  MIC: > 64 µg/mL
[5]
  MIC: > 64 µg/mL
[6]
  MIC: > 64 µg/mL
[7]
  MIC: 16 µg/mL (≈ 36.9 µM)
[8]
  MIC: 32 µg/mL (≈ 73.8 µM)

## Cc1ccc(-c2ccc(CO[C@](C)(C(=O)NO)[C@@H](O)c3cc(CO)on3)cc2)cc1 [Example 37, (2S,3S)-N,3-dihydroxy-3-[5-(hydroxymethyl)isoxazol-3-yl]-2-methyl-2-[(4′-methylbiphenyl-4-yl)methoxy]propanamide]
[1]
  MIC: 0.015 µg/mL (≈ 0.0364 µM)
[2]
  MIC: 64 µg/mL (≈ 155 µM)
[3]
  IC50: 0.000476 µM
[4]
  MIC: 64 µg/mL (≈ 155 µM)
[5]
  MIC: 16 µg/mL (≈ 38.8 µM)
[6]
  MIC: > 64 µg/mL
[7]
  MIC: 8 µg/mL (≈ 19.4 µM)
[8]
  MIC: 0.75 µg/mL (≈ 1.82 µM)

## Cc1ccc(-c2ccc(CO[C@](C)(C(=O)NO)[C@@H](O)c3cc(CO)on3)cc2)nc1 [Example 40, (2S,3S)-N,3-dihydroxy-3-[5-(hydroxymethyl)isoxazol-3-yl]-2-methyl-2-{[4-(5-methylpyridin-2-yl)benzyl]oxy}propanamide]
[1]
  MIC: 0.125 µg/mL (≈ 0.302 µM)
[2]
  MIC: > 64 µg/mL
[3]
  IC50: 0.00081 µM
[4]
  MIC: > 64 µg/mL
[5]
  MIC: > 64 µg/mL
[6]
  MIC: > 64 µg/mL
[7]
  MIC: > 64 µg/mL
[8]
  MIC: 16 µg/mL (≈ 38.7 µM)

## C[C@@](OCc1ccc(-c2ccccc2)cc1)(C(=O)NO)[C@@H](O)C1CC1 [Example 15, (2S,3S)-2-(biphenyl-4-ylmethoxy)-3-cyclopropyl-N,3-dihydroxy-2-methylpropanamide]
[1]
  MIC: 32 µg/mL (≈ 93.7 µM)
[2]
  MIC: > 64 µg/mL
[3]
  IC50: 0.0734 µM
[4]
  MIC: > 64 µg/mL
[5]
  MIC: > 64 µg/mL
[6]
  MIC: > 64 µg/mL
[7]
  MIC: > 64 µg/mL
[8]
  MIC: > 64 µg/mL

## Cc1nc([C@H](O)[C@](C)(OCc2ccc(-c3ccccc3)cc2)C(=O)NO)c(C)o1 [Example 27, (2S,3S)-2-(biphenyl-4-ylmethoxy)-3-(2,5-dimethyl-1,3-oxazol-4-yl)-N,3-dihydroxy-2-methylpropanamide]
[1]
  MIC: 16 µg/mL (≈ 40.4 µM)
[2]
  MIC: > 64 µg/mL
[3]
  IC50: 0.0652 µM
[4]
  MIC: > 64 µg/mL
[5]
  MIC: > 64 µg/mL
[6]
  MIC: > 64 µg/mL
[7]
  MIC: > 64 µg/mL
[8]
  MIC: > 64 µg/mL

## CC(OCc1ccc(-c2ccccc2)cc1)(C(=O)NO)C(=O)NCc1cc(-c2ccccc2)on1 (centres unmarked) [Example 67, 2-(biphenyl-4-ylmethoxy)-N-hydroxy-2-methyl-N′-[(5-phenylisoxazol-3-yl)methyl]malonamide]
[1]
  MIC: 0.5 µg/mL (≈ 1.06 µM)
[2]
  MIC: 8 µg/mL (≈ 17 µM)
[3]
  IC50: 0.0032 µM
[4]
  MIC: > 16 µg/mL
[5]
  MIC: > 16 µg/mL
[6]
  MIC: > 16 µg/mL
[7]
  MIC: 16 µg/mL (≈ 33.9 µM)
[8]
  MIC: 4 µg/mL (≈ 8.48 µM)

## COCc1ccc([C@H](O)[C@](C)(OCc2ccc(-c3ccccc3)cc2)C(=O)NO)o1 [Example 24, (2S,3S)-2-(biphenyl-4-ylmethoxy)-N,3-dihydroxy-3-[5-(methoxymethyl)-2-furyl]-2-methylpropanamide]
[1]
  MIC: 2 µg/mL (≈ 4.86 µM)
[2]
  MIC: > 64 µg/mL
[3]
  IC50: 0.00128 µM
[4]
  MIC: > 64 µg/mL
[5]
  MIC: > 64 µg/mL
[6]
  MIC: > 64 µg/mL
[7]
  MIC: > 64 µg/mL
[8]
  MIC: 32 µg/mL (≈ 77.8 µM)
